Experimental data from PMC12606464, “Investigating NFE2L1 activators for targeted protein aggregate clearance: a follow-up study” (RSC Medicinal Chemistry, 2025).

System: NFE2L1 pathway (DDI2-dependent) in HCT116 cells
Assay: 3×PSMA4-ARE-LUC reporter in HCT116 WT and DDI2 knockout cells
Format: cell-based, human
Procedure: Fig. 1 (A) Targeted library screening of RUN compounds using the 3×PSMA4-ARE-LUC dual reporter assay in HEK293 cells. Cells were exposed to RUN compounds (5 μM) for 16 hours, and luciferase activity was measured. Data are presented as the mean ± SD from three independent experiments (n = 3). Results are shown as a fold change in luminescence relative to DMSO-treated cells. Selected hit compounds are highlighted in distinct colours. (B) RUN-89 specifically activates the NFE2L1 pathway. The DDI2 knockout (KO) and parental (WT) HCT116 cells were transfected with the 3×PSMA4-ARE-LUC reporter and treated with 0.5 μM bortezomib (BTZ) and 5 μM RUN-89 for 16 hours. Data are presented as the Geomean ± GeoSD of three independent experiments (n = 3). Statistical analysis was performed on log2-transformed values using two-way repeated-measures ANOVA followed by Šídak's multiple comparison test. (C) RUN-89 selectively triggers downstream signaling events associated with NFE2L1 gene expression. HEK293 cells were transfected with lipid nanoparticles (LNPs) carrying siRNAs targeting NFE2L1 or NFE2L2. LNPs formulated with non-targeting siRNA served as a negative control. Following 24 hours of incubation, cells were treated with 7.5 μM RUN-89 or DMSO (vehicle) for an additional 16 hours. Expression of the proteasomal subunit gene PSMC4 was then quantified by RT-qPCR. Data are shown as the Geomean ± GeoSD from three independent biological replicates (n = 3). Log2-transformed data were analyzed using two-way repeated-measures ANOVA with the Geisser–Greenhouse correction, followed by Tukey's multiple comparison test with individual variances computed for each comparison. Additional results for NFE2L1, NFE2L2, PSMB7, and PSMD12 are presented in SI Fig. S10.
To clarify whether the representative compound RUN-89 activates the NFE2L1-specific luciferase reporter independently of the KEAP1–NFE2L2 pathway, we used the 3×PSMA4-ARE-LUC dual reporter in previously published DDI2 knockout HCT116 cells (from ATCC CCL-247 (RRID:CVCL_0291)), in which the protease essential for NFE2L1 activation is disrupted. […] These findings indicate that RUN-89 activates the reporter construct through NFE2L1.
2 Biology Experimental Procedures […]
Cell lines were sourced from the ATCC (USA) and/or ECACC (UK), namely HCT116 (human colorectal carcinoma), ATCC CCL-247 (RRID:CVCL_0291), HEK-293 (human embryonic kidney), ATCC CRL-1573 (RRID:CVCL_0045), SH-SY5Y (human neuroblastoma), ATCC CRL-2266 (RRID:CVCL_0019). The characteristics of DDI2 knockout cells derived from HCT116 cells have been described previously (Sedlacek et al., 2025). All cell lines were tested for mycoplasma contamination. Most of the cell lines were cultured in Dulbecco's Modified Eagle Medium (DMEM) enriched with 10% fetal bovine serum (FBS) and 2 mM L-glutamine, under standard conditions of 37 °C with 5% CO₂. DNA transfection was performed with Lipofectamine 2000, following the manufacturer's instructions. […]
alamarBlue assay according to the standard protocol.(1)
2.3 Dual luciferase phenotypic assays
HEK293-derived cells stably expressing the 3×PSMA4-ARE-Luc reporter were maintained at low to mid passage numbers before use. For each experiment, cells were transiently transfected with the pRL-TK Renilla luciferase plasmid using Lipofectamine 2000.
Approximately 5–6 hours post-transfection, cells were seeded into plate format according to the experiment (384-well plate mostly). On the following day, cells were treated with the indicated test compounds or DMSO vehicle control for 16 hours (unless otherwise specified).
After treatment, cells were lysed and luciferase activities were quantified using the Dual-Luciferase® Reporter Assay System according to the manufacturer’s instructions and established protocols.(2, 3) For assays using the CMV-XBP-Gluc construct encoding Gaussia […]

## COc1ccc(/C=C2\CC(NC(=O)C3CCCC3)C/C(=C\c3ccc(OC)c(OC)c3)C2=O)cc1OC (stereo not shown) [RUN-89]
DDI2-/- clone KO 04, 0.5 μM BTZ or 5 μM RUN-89, 16 h, DMSO = 0
  Mean log2-transformed reporter fold change, HCT116 KO 04: 0.09237
DDI2-/- clone KO 11, 0.5 μM BTZ or 5 μM RUN-89, 16 h, DMSO = 0
  Mean log2-transformed reporter fold change, HCT116 KO 11: 0.4773
DDI2 knockout HCT116, in contrast to wild-type cells
  Reporter activity in DDI2-deficient cells: neither the proteasome inhibitor bortezomib nor RUN-89 induced reporter activity
WT (DDI2+/+), 0.5 μM BTZ or 5 μM RUN-89, 16 h, DMSO = 0
  Mean log2-transformed reporter fold change, HCT116 WT: 1.7
